{"source": "paper PMC9050811", "about": "(RSC Advances, 2020)", "origin": "cited, not measured here", "key": {"[1]": {"test_system": "MTB", "conditions": "cited from earlier work"}, "[2]": {"test_system": "MTB H37Rv", "conditions": "cited from earlier work"}, "[3]": {"test_system": "MTB H37Rv", "conditions": "cited from earlier work", "remark": "listed apart in the source"}, "[4]": {"test_system": "DNA supercoiling", "conditions": "read-out: IC50 in the DNA supercoiling assay; cited from earlier work"}, "[5]": {"test_system": "MTB", "conditions": "cited from earlier work", "remark": "listed apart in the source"}}, "data": [{"compound": "Cc1ccc(NC(=O)c2cnc(C(C)(C)C)c(Cl)n2)cc1I", "note": "[D, 5-(tert-Butyl)-6-chloro-N-(3-iodo-4-methylphenyl)pyrazine-2-carboxamide]", "values": [{"measurement": "IC50, anti-mycobacterial activity", "setting": "[1]", "result": 0.728, "unit": "µg/mL"}, {"measurement": "IC90, anti-mycobacterial activity", "setting": "[1]", "result": 0.819, "unit": "µg/mL"}]}, {"compound": "c1ccc(N2CCN(c3nc4ccccc4c4ccccc34)CC2)nc1", "note": "[H, 6-(4-(pyridin-2-yl)piperazin-1-yl)phenanthridine]", "values": [{"measurement": "MTB MIC against H37Rv", "setting": "[2]", "result": 1.56, "unit": "µg/mL"}]}, {"compound": "O=C(NCCN1CCOCC1)c1cnccn1", "note": "[F, N-(2-morpholinoethyl)pyrazine-2-carboxamide]", "values": [{"measurement": "MIC against MTB H37Rv", "setting": "[3]", "result": 8.0, "unit": "µg/mL"}]}, {"compound": "Cc1cccc(NC(=O)c2cnccn2)c1Br", "note": "[B, N-(2-bromo-3-methylphenyl)pyrazine-2-carboxamide]", "values": [{"measurement": "MIC, anti-mycobacterial activity", "setting": "[1]", "result": "≤ 0.002", "unit": "µg/mL"}]}, {"compound": "COc1cnc2ccc(=O)n(CCN3CCN(C(=O)Nc4ccc([N+](=O)[O-])cc4)CC3)c2c1", "note": "[4-(2-(7-methoxy-2-oxo-1,5-naphthyridin-1-(2H)-yl)ethyl)-N-(4-nitrophenyl)piperazine-1-carboxamide]", "values": [{"measurement": "IC50", "setting": "[4]", "result": 0.29, "unit": "µM"}, {"measurement": "MTB MIC", "setting": "[5]", "result": 3.45, "unit": "µM"}]}, {"compound": "NC(=O)c1cnccn1", "note": "[PZA, Pyrazinamide]", "values": [{"measurement": "IC90, anti-mycobacterial activity", "setting": "[1]", "result": "> 20", "unit": "µg/mL"}, {"measurement": "MIC, anti-mycobacterial activity", "setting": "[1]", "result": 0.008, "unit": "µg/mL"}]}, {"compound": "O=S(=O)(c1ccccc1)n1cc(CN2CCN(c3nc4ccccc4c4ccccc34)CC2)nn1", "note": "[G, 6-(4-((1-(phenylsulfonyl)-1H-1,2,3-triazol-4-yl)methyl)piperazin-1-yl)phenanthridine]", "values": [{"measurement": "MTB MIC against H37Rv", "setting": "[2]", "result": 1.56, "unit": "µg/mL"}]}, {"compound": "O=c1nc(N2CCN(C(=S)Nc3ccc(Cl)cc3)CC2)sc2ccc([N+](=O)[O-])cc12", "note": "[N-(4-chlorophenyl)-4-(6-nitro-4-oxo-4H-benzo[e][1,3]thiazin-2-yl)piperazine-1-carbothioamide]", "values": [{"measurement": "IC50", "setting": "[4]", "result": 0.51, "unit": "µM"}, {"measurement": "MTB MIC", "setting": "[5]", "result": 4.41, "unit": "µM"}]}, {"compound": "O=C(NCCN1CCNCC1)c1cnccn1", "note": "[E, N-(2-(piperazin-1-yl)ethyl)pyrazine-2-carboxamide]", "values": [{"measurement": "MIC against MTB H37Rv", "setting": "[3]", "result": 12.2, "unit": "µg/mL"}]}]}
